Here are results for ten compounds from article PMC6893898, “Receptor Interaction Profiles of 4-Alkoxy-Substituted 2,5-Dimethoxyphenethylamines and Related Amphetamines” (Frontiers in Pharmacology, 2019).

For test [1], the target named is T1, 5-HT1A receptor (Homo sapiens, UniProt P08908).
T1 construct: expressed in transfected cells; host or cells: HEK 293 (membrane preparation)
T1 sequence (P08908 1-422): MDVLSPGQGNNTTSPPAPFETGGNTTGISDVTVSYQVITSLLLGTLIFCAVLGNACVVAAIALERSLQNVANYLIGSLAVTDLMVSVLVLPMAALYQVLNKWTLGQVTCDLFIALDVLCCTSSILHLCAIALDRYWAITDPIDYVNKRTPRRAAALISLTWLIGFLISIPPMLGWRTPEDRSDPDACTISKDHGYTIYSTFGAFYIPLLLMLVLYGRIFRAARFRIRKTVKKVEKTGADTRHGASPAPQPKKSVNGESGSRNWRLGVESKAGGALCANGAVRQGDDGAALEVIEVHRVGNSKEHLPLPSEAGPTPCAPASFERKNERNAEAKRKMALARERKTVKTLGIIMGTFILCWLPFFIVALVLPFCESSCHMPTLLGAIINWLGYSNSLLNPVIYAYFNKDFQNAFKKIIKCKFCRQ
The conditions noted are these: cited from earlier work.

Test [2] addresses T2, human 5-HT2B receptor (Homo sapiens, UniProt P41595).
T2 construct: expressed in transfected cells; host or cells: HEK 293
On the set-up: method as in Luethi et al., 2018. The conditions noted are these: ref Luethi et al., 2018, cited from earlier work.

For test [3], the system named is humans. The conditions noted are these: ref Shulgin and Shulgin, 1991, cited from earlier work; for Psychoactivity in humans: at the doses tested.
Test [4] addresses T3, dopaminergic D2 receptor (Homo sapiens, UniProt P14416).
T3 construct: expressed in transfected cells; host or cells: HEK 293 (membrane preparation)
On the set-up: method as in Simmler et al., 2013. The conditions noted are these: read-out: D2 Ki ± SD; [3H]spiperone; ref Simmler et al., 2013; cited from earlier work.

Test [5] addresses T4, hDAT (Homo sapiens, UniProt Q01959). On the set-up: expressed in transfected cells; host or cells: HEK 293 (membrane preparation); method as in Simmler et al., 2013. The conditions noted are these: [3H]WIN35,428; ref Simmler et al., 2013; read-out: hDAT Ki ± SD; cited from earlier work.
Test [6] addresses T4, hDAT. On the set-up: expressed in transfected cells; host or cells: HEK 293 (membrane preparation). The conditions noted are these: read-out: DAT uptake inhibition EC50; known low potency in this assay; no reference given; cited from earlier work.
The target in test [7] is T5, hSERT (Homo sapiens, UniProt P31645). Put plainly: Monoamine uptake transporter inhibition, [3H]5-HT, HEK 293 cells. The conditions noted are these: 10 µM.
T5 sequence (P31645 whole entry): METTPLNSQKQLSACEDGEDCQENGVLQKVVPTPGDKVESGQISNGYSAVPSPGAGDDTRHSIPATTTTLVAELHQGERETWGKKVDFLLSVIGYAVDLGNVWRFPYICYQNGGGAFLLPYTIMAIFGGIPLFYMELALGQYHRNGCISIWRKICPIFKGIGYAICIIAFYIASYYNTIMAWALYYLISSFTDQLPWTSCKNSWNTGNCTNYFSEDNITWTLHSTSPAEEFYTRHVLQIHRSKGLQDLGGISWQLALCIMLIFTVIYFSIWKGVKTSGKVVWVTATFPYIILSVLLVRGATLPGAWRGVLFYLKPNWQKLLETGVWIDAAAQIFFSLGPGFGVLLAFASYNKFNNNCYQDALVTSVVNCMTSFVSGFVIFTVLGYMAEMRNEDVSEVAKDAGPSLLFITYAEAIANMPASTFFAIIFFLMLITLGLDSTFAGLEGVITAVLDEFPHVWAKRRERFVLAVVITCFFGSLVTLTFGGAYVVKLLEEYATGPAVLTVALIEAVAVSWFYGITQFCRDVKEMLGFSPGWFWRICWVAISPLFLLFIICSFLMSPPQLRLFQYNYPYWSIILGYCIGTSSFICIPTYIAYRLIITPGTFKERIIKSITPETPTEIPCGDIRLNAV
The target in test [8] is T6, α2A adrenergic receptor (Homo sapiens, UniProt P08913).
T6 construct: expressed in transfected cells; host or cells: Chinese hamster lung cell line (membrane preparation)
T6 sequence (P08913 1-465): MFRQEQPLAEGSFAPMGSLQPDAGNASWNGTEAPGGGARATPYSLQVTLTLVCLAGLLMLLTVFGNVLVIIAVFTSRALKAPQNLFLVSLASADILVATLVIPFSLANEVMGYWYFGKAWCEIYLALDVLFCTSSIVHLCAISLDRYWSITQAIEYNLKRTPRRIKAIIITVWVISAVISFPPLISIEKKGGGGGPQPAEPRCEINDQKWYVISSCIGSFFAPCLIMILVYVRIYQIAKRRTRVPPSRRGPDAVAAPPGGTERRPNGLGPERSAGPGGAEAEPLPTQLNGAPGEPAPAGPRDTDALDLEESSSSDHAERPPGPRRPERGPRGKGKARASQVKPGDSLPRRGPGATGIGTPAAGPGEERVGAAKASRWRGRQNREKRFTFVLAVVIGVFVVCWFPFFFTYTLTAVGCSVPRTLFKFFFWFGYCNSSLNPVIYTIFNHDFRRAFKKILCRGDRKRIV
Also on record: method as in Simmler et al., 2013. The conditions noted are these: read-out: α2A Ki ± SD; [3H]rauwolscine; ref Simmler et al., 2013; cited from earlier work.

For test [9], the target named is T7, hNET (Homo sapiens, UniProt P23975). Put plainly: Monoamine uptake transporter inhibition, [3H]norepinephrine, HEK 293 cells. The conditions noted are these: 10 µM.
T7 sequence (P23975 whole entry): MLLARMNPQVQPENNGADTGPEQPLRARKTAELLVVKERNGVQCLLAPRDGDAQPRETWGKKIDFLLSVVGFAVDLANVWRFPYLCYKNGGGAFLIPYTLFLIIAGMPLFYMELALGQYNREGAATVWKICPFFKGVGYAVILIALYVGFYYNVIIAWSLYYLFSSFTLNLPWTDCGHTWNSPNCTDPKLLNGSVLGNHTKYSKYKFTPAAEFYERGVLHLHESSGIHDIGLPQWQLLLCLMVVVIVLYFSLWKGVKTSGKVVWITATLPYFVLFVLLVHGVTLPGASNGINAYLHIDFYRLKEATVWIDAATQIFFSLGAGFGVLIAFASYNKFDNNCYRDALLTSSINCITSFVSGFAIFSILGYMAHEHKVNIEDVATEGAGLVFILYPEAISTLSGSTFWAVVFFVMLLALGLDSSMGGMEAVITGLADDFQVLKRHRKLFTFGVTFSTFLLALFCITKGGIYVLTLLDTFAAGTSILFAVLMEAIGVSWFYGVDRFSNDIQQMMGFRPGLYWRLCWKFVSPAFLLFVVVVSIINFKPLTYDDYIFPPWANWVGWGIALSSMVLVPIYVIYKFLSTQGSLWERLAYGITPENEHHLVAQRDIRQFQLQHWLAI
In test [10] the target is T7, hNET. Also on record: expressed in transfected cells; host or cells: HEK 293 (membrane preparation); method as in Simmler et al., 2013. The conditions noted are these: read-out: hNET Ki ± SD; N-methyl-[3H]nisoxetine; ref Simmler et al., 2013; cited from earlier work.
For test [11], the target named is T4, hDAT. Put plainly: Monoamine uptake transporter inhibition, [3H]dopamine, HEK 293 cells. The conditions noted are these: 10 µM.
Test [12] has as its target T8, α1A adrenergic receptor (Homo sapiens, UniProt P35348).
T8 construct: expressed in transfected cells; host or cells: Chinese hamster ovary cell line (membrane preparation)
T8 sequence (P35348 1-466): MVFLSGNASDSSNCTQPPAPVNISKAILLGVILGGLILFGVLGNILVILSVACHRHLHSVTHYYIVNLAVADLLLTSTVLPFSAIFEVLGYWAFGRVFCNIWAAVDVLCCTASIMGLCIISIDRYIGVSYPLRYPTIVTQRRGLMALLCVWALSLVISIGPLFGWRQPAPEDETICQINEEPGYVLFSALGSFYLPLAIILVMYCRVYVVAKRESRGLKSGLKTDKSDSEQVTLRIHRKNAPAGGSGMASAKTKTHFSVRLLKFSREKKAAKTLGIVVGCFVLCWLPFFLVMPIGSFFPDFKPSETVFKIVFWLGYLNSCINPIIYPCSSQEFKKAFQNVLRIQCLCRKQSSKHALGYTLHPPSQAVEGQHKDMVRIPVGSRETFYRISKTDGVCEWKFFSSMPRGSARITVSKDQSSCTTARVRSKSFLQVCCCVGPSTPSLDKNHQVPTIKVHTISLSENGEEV
On the set-up: method as in Simmler et al., 2013. The conditions noted are these: read-out: α1A Ki ± SD; [3H]prazosin; ref Simmler et al., 2013; cited from earlier work.

For test [13], the target named is T9, mouse TAAR1 (Mus musculus, UniProt Q923Y8).
T9 construct: expressed in transfected cells; host or cells: HEK 293 (membrane preparation)
T9 sequence (Q923Y8 whole entry): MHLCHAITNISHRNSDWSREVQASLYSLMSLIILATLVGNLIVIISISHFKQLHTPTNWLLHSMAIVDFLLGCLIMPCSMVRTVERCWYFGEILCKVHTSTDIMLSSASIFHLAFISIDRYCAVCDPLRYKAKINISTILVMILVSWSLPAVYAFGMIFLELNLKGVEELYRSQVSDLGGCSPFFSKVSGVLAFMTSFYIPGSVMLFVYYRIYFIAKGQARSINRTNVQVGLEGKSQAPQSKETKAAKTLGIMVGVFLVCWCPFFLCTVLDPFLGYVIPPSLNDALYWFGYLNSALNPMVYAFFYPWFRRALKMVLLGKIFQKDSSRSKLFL
On the set-up: method as in Simmler et al., 2013. The conditions noted are these: read-out: mouse TAAR1 Ki ± SD; [3H]RO5166017; ref Simmler et al., 2013; cited from earlier work.

Test [14] concerns the target T10, rat TAAR1 (Rattus norvegicus, UniProt Q923Y9).
T10 construct: expressed in transfected cells; host or cells: HEK 293 (membrane preparation)
Also on record: method as in Simmler et al., 2013. The conditions noted are these: read-out: rat TAAR1 Ki ± SD; [3H]RO5166017; ref Simmler et al., 2013; cited from earlier work.

The subject of test [15] is head-twitch response. Also on record: method as in Halberstadt et al., 2019. The conditions noted are these: ref Halberstadt et al., 2019; cited from earlier work.
For test [16], the target named is T10, rat TAAR1. Put plainly: Radioligand binding, rat TAAR1 ([3H]RO5166017).
Test [17] concerns the target T8, α1A adrenergic receptor. Put plainly: Radioligand binding, α1A adrenergic receptor ([3H]prazosin).
For test [18], the target named is T2, human 5-HT2B receptor. Put plainly: Activity at the 5-HT2B receptor (FLIPR calcium, HEK 293 cells). The format is cell-based. The protocol: Activity at the 5-HT2B receptor was examined as previously described ([Luethi et al., 2018]). In summary, HEK 293 cells expressing the human 5-HT2B receptor were seeded at a density of 50,000 cells per well in 96-well poly-D-lysine-coated plates overnight at 37°C. The cells were then incubated in growth medium consisting of high glucose Dulbecco’s modified Eagle’s medium (DMEM) (Invitrogen, Zug, Switzerland), 10% fetal calf serum (non-dialyzed, heat-inactivated), 250 mg/l Geneticin and 10 ml/l PenStrep (Gibco), overnight at 37°C. After removal of the growth medium via snap inversion, calcium indicator Fluo-4-solution (100 µl) was injected into each well (Molecular Probes, Eugene, OR, USA) and incubated for 45 min at 31°C. Afterwards, the Fluo-4 solution was removed (snap inversion) and a further 100 µl of the Fluo-4 solution was added and incubated (45 min, 31°C). Thereafter, using the EMBLA cell washer, the cells were washed just before testing with HBSS and 20 mM HEPES and exposed to 100 µl of assay buffer. The well plate was positioned in the FLIPR and while online, 25 µl of the test compounds diluted in assay buffer were added. Concentration-response curves were calculated using nonlinear regression, and EC50 values were obtained. The maximal activity at the receptors was calculated relative to 5-HT activity which was defined as 100%.

The target in test [19] is T7, hNET. Put plainly: Radioligand binding, NET (N-methyl-[3H]nisoxetine). On the set-up: expressed in transfected cells; host or cells: HEK 293 (membrane preparation).
Test [20] addresses T4, hDAT. Put plainly: Radioligand binding, DAT ([3H]WIN35,428). Also on record: expressed in transfected cells; host or cells: HEK 293 (membrane preparation).
In test [21] the target is T9, mouse TAAR1. Put plainly: Radioligand binding, mouse TAAR1 ([3H]RO5166017).
The target in test [22] is T6, α2A adrenergic receptor. Put plainly: Radioligand binding, α2A adrenergic receptor ([3H]rauwolscine).
Test [23] addresses T5, hSERT. Put plainly: Radioligand binding, SERT ([3H]citalopram). Also on record: expressed in transfected cells; host or cells: HEK 293 (membrane preparation).
Test [24] addresses T3, dopaminergic D2 receptor. Put plainly: Radioligand binding, dopaminergic D2 receptor ([3H]spiperone).
For test [25], the target named is T1, 5-HT1A receptor. Put plainly: Radioligand binding, 5-HT1A receptor ([3H]8-OH-DPAT).

“Also recorded” adds a separate entry of the source. Where two headings read alike, the source gives them in different places. A value given as a limit tells only on which side of the number the result lay.

T2 sequence (P41595 whole entry): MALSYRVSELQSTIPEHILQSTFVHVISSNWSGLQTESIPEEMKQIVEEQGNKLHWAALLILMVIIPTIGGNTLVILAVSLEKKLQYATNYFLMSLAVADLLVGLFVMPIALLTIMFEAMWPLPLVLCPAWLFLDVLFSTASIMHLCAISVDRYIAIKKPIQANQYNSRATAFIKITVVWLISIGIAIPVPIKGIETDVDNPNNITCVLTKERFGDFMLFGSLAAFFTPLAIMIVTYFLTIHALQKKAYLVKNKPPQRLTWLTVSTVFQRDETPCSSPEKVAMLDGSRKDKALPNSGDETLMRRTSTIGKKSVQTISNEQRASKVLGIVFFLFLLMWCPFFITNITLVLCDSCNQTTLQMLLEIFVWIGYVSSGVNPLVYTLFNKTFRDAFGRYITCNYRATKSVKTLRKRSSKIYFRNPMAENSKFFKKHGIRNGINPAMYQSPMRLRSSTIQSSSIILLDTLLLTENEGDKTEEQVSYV
T4 sequence (Q01959 whole entry): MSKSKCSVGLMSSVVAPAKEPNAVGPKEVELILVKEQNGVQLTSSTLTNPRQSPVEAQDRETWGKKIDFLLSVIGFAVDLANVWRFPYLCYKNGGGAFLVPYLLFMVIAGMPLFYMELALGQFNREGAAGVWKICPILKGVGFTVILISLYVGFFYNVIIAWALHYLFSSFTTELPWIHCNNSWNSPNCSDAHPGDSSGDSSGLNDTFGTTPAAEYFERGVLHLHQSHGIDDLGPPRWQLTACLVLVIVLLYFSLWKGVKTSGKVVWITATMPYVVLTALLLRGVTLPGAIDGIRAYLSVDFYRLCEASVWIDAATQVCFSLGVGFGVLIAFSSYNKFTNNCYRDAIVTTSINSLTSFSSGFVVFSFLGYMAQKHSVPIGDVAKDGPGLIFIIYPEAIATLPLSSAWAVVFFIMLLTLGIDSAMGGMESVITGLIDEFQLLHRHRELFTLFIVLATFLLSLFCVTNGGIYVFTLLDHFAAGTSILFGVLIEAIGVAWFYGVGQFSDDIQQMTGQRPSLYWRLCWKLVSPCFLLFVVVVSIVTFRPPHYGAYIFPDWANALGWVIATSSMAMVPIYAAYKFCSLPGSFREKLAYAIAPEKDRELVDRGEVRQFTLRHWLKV
T10 sequence (Q923Y9 whole entry): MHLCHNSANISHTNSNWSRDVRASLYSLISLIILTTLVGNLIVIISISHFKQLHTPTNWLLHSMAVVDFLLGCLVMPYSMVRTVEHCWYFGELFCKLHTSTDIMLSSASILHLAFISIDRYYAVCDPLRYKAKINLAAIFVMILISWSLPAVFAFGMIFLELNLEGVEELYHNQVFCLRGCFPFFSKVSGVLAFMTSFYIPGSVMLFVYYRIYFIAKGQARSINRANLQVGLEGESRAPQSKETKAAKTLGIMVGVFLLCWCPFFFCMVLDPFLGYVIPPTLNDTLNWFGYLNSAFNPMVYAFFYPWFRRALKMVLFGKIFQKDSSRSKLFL
T3 sequence (P14416 whole entry): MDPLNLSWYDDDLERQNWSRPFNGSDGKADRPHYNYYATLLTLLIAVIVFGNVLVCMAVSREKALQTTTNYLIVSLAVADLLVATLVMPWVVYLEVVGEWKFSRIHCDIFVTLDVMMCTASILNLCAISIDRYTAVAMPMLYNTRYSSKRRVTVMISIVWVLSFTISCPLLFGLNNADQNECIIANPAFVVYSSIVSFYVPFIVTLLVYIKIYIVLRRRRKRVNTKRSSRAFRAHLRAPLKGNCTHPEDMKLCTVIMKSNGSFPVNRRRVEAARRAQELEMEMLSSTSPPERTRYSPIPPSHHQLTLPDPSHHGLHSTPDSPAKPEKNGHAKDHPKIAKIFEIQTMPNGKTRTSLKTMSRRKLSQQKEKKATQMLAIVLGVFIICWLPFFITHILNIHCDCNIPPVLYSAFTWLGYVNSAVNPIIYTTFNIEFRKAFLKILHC

With `COc1cc(CCN)c(OC)cc1Br` [2C-B, 4-bromo-2,5-dimethoxyphenethylamine], the Ki in test [1] (read-out: h5-HT1A Receptor binding Ki ± SD, [3H]8-OH-DPAT, ref Luethi et al., 2018) is 0.311 ± 0.046 µM. Further, in test [2] (read-out: h5-HT2B Activation potency EC50 ± SD), the half-maximal effective concentration (EC50) is 0.075 ± 0.014 µM. In [2] (relative to 5-HT), the “h5-HT2B Activation efficacy max ± SD” value is on record as 52 ± 26%.
With `COc1cc(OC)c(OC)cc1CCN` [2C-O-1, 2,4,5-trimethoxyphenethylamine], the Psychoactivity in humans result in test [3] was “fairly inactive in humans; also recorded: not psychoactive in humans”.
Regarding `CNC(C)Cc1ccc2c(c1)OCO2` (stereo not shown) [MDMA], the inhibition constant (Ki) in [4] was 25.2 ± 2 µM; in test [5], 6.5 ± 2.5 µM; in test [8] it was 15 ± 0.2 µM; in [10] it was 30.5 ± 8 µM; in [12] it was > 6 µM; in test [13] it was 2.4 ± 1.1 µM. Besides, the Ki in test [14] is 0.37 ± 0.12 µM. Besides, the concentration giving a half-maximal response (EC50) in [6] was 17 µM. Moreover, the “Effect on 5-HT uptake into the cells” value in test [7] is on record as “markedly reduced”. In addition, the “Effect on NE uptake into the cells” value in [9] is recorded as “markedly reduced”. Besides, the “Effect on DA uptake into the cells” value in test [11] was “moderately reduced”.
For `CCCOc1cc(OC)c(CC(C)N)cc1OC` (stereo not shown) [MPM, 2,5-dimethoxy-4-propoxyampehtamine], the Psychoactivity in humans result in test [3] is “no psychoactive effects”. The “Behavioral potency in head-twitch response” value (from here on “Behavioral potency”) in test [15] is recorded as “equipotent”.
With `COc1cc(OC)c(OC)cc1CC(C)N` (stereo not shown) [TMA-2, 2,4,5-trimethoxyamphetamine], the Ki is 3.1 ± 0.1 µM in test [16]; > 6.5 µM in test [17]; > 8.7 µM in [19]; > 8.5 µM in test [20]; > 4.4 µM in test [21]; > 4.7 µM in [22]. Also, the Ki is > 7.5 µM in [23], > 13 µM in test [24] and > 17 µM in [25]. Further, the concentration giving a half-maximal response (EC50) in [18] was 0.27 µM. Besides, in [18] (HEK293, relative to 5-HT = 100%, read-out: h5-HT2B Activation efficacy max ± SD), the Emax is 78 ± 5%. Further, the Psychoactivity in humans entry in [3] was “displayed psychedelic activity”. The “Potency in humans relative to 3,4,5-trimethoxyamphetamine (TMA)” value in test [3] (EMCDDA, 2004) was “roughly 6 times”. Moreover, in test [15], the “Behavioral potency” value is “equipotent”.
As to `CCCCOc1cc(OC)c(CC(C)N)cc1OC` (stereo not shown) [MBM, 4-butoxy-2,5-dimethoxyamphetamine], the Psychoactivity in humans entry in [3] is “no psychoactive effects”.
As to `CCOc1cc(OC)c(CC(C)N)cc1OC` (stereo not shown) [MEM, 2,5-dimethoxy-4-ethoxyamphetamine], in test [3], the Psychoactivity in humans result is recorded as “displayed psychedelic activity”. In test [15], the “Behavioral potency” value is on record as “equipotent”.
With `COc1cc(OC(C)C)c(OC)cc1CCN` [2C-O-4, 2,5-dimethoxy-4-isopropoxyphenethylamine], the Psychoactivity in humans entry in [3] is “fairly inactive in humans; also recorded: not psychoactive in humans”.
For the compound `CC(N)Cc1ccccc1` (stereo not shown) [amphetamine], in test [1] (read-out: 5-HT1A receptor Ki, ref Simmler et al., 2013), the inhibitory constant (Ki) is 6.7 µM.
For `COc1cc(CCN)cc(OC)c1OC` [mescaline, 3,4,5-trimethoxyphenethylamine], the “Psychoactive oral dose in humans” value in [3] (oral, humans) is > 200 mg.

In general, Ki refers to a measure of affinity in units of concentration, obtained from inhibition or displacement. By EC50 is commonly meant the concentration at which the effect is half-maximal.
